For this test, the system named is NL-RLuc virus. The test can be described thus: Inhibition of HIV replication (NL-RLuc virus, luciferase readout in MT-2 cells). Format: cell-based. To be noted: Human immunodeficiency virus 1, MT2, 120 h, MT-2 cells infected with NL-RLuc virus, 5 days of incubation, 10% FBS, at least 2 experiments. The essentials:
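EC50 derived via median effect equation from at least 2 experiments, using luciferase expression as virus-growth readout. Replication-competent NL-RLuc reporter virus (nef partly replaced by Renilla luciferase) infected MT-2 cells with serial compound dilutions; 5-day incubation in RPMI 1640 plus 10% FBS.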
As usually defined, the EC50 is the concentration at which the effect is half-maximal. The molecule `Cc1cc(-c2cnc(C)c([C@H](OC(C)(C)C)C(=O)O)c2N2CCC(C)(C)CC2)cnc1OCC(C)C` [Example 428, (S)-2-tert-Butoxy-2-(4-(4,4-dimethylpiperidin-1-yl)-6′-isobutoxy-5′,6-dimethyl-3, 3′-bipyridin-5-yl)acetic acid] had an EC50 of 7 nM. As for `Cc1cc(OCC(C)C)ncc1-c1cnc(C)c([C@H](OC(C)(C)C)C(=O)O)c1N1CCC(C)(C)CC1` [Example 429, (2S)-2-tert-Butoxy-2-(4-(4,4-dimethylpiperidin-1-yl)-6′-isobutoxy-4′,6-dimethyl-3, 3′-bipyridin-5-yl)acetic acid], the figure is 219 nM; as for `Cc1ncc(-c2ccc(C(F)(F)CC(C)C)nc2)c(N2CCC(C)(C)CC2)c1[C@H](OC(C)(C)C)C(=O)O` [Example 430, (S)-2-tert-Butoxy-2-(6′-(1,1-difluoro-3-methylbutyl)-4-(4,4-dimethylpiperidin-1-yl)-6-methyl-3, 3′-bipyridin-5-yl)acetic acid], 16 nM.

Turning to `Cc1ncc(-c2ccc(OCC(C)C)nc2Cl)c(N2CCC(C)(C)CC2)c1[C@H](OC(C)(C)C)C(=O)O` [Example 431, (2S)-2-tert-Butoxy-2-(2′-chloro-4-(4,4-dimethylpiperidin-1-yl)-6′-isobutoxy-6-methyl-3, 3′-bipyridin-5-yl)acetic acid], the response was half-maximal at 32 nM (EC50). In the case of `Cc1ncc(-c2ccc([C@@H](O)CC(C)C)nc2)c(N2CCC(C)(C)CC2)c1[C@H](OC(C)(C)C)C(=O)O` [Example 432, (S)-2-tert-Butoxy-2-(4-(4,4-dimethylpiperidin-1-yl)-6′-((S)-1-hydroxy-3-methylbutyl)-6-methyl-3, 3′-bipyridin-5-yl)acetic acid], the response was half-maximal at 32 nM (EC50). For `Cc1ncc(-c2ccc([C@H](O)CC(C)C)nc2)c(N2CCC(C)(C)CC2)c1[C@H](OC(C)(C)C)C(=O)O` [Example 433, (S)-2-tert-butoxy-2-(4-(4,4-dimethylpiperidin-1-yl)-6′-((R)-1-hydroxy-3-methylbutyl)-6-methyl-3,3′-bipyridin-5-yl)acetic acid] the value was 25 nM. In turn, `Cc1ncc(-c2ccc(OCC(C)C)nc2F)c(N2CCC(C)(C)CC2)c1[C@H](OC(C)(C)C)C(=O)O` [Example 434, (2S)-2-tert-Butoxy-2-(4-(4,4-dimethylpiperidin-1-yl)-2′-fluoro-6′-isobutoxy-6-methyl-3, 3′-bipyridin-5-yl)acetic acid] had a 50% effective concentration (EC50) of 13 nM. For `Cc1ncc(-c2ccc(F)nc2OCC(C)C)c(N2CCC(C)(C)CC2)c1[C@H](OC(C)(C)C)C(=O)O` [Example 435, (2S)-2-tert-Butoxy-2-(4-(4,4-dimethylpiperidin-1-yl)-6′-fluoro-2′-isobutoxy-6-methyl-3, 3′-bipyridin-5-yl)acetic acid] the value was 501 nM; for `Cc1ncc(-c2ccc(NCC(C)C)nc2)c(N2CCC(C)(C)CC2)c1[C@H](OC(C)(C)C)C(=O)O` [Example 436, (S)-2-tert-Butoxy-2-(4-(4,4-dimethylpiperidin-1-yl)-6′-(isobutylamino)-6-methyl-3, 3′-bipyridin-5-yl)acetic acid], 7 nM; for `CCCCNc1ccc(-c2cnc(C)c([C@H](OC(C)(C)C)C(=O)O)c2N2CCC(C)(C)CC2)cn1` [Example 437, (S)-2-tert-Butoxy-2-(6′-(butylamino)-4-(4,4-dimethylpiperidin-1-yl)-6-methyl-3, 3′-bipyridin-5-yl)acetic acid], 9 nM. `Cc1ncc(-c2ccc(OC(C)C(C)C)nc2)c(N2CCC(C)(C)CC2)c1[C@H](OC(C)(C)C)C(=O)O` (stereo partly drawn) [Example 438, (2S)-2-tert-Butoxy-2-(4-(4,4-dimethylpiperidin-1-yl)-6-methyl-6′-(3-methylbutan-2-yloxy)-3, 3′-bipyridin-5-yl)acetic acid] returned an EC50 of 14 nM.

In turn, `Cc1ncc(-c2ccc(OC(C)CC(C)C)nc2)c(N2CCC(C)(C)CC2)c1[C@H](OC(C)(C)C)C(=O)O` (stereo partly drawn) [Example 439, (2S)-2-tert-Butoxy-2-(4-(4,4-dimethylpiperidin-1-yl)-6-methyl-6′-(4-methylpentan-2-yloxy)-3, 3′-bipyridin-5-yl)acetic acid] gave an EC50 of 15 nM. For `CCCCNc1ccc(-c2cnc(C)c([C@H](OC(C)(C)C)C(=O)O)c2N2CCC(C)(C)CC2)nc1` [Example 441, (S)-2-(tert-Butoxy)-2-(5-(butylamino)-4′-(4,4-dimethylpiperidin-1-yl)-6′-methyl-[2, 3′-bipyridin]-5′-yl)acetic acid] the value was 7 nM; for `CCCCN(C)c1ccc(-c2cnc(C)c([C@H](OC(C)(C)C)C(=O)O)c2N2CCC(C)(C)CC2)nc1` [Example 442, (S)-2-(tert-Butoxy)-2-(5-(butyl(methyl)amino)-4′-(4,4-dimethylpiperidin-1-yl)-6′-methyl-[2, 3′-bipyridin]-5′-yl)acetic acid], 5 nM.
